# Patent US12157730B2, “Heteroaryl derivative, method for producing same, and pharmaceutical composition comprising same as effective component” (VORONOI INC., priority 2019, dated 2024)
# Target: T1, Ba/F3 cell EGFR Exon20 ins NPH (Homo sapiens, UniProt P00533, INS773NPH)
# T1 construct: expressed in transfected cells; host or cells: Ba/F3
# Assay: Ba/F3 cell proliferation suppression, EGFR Exon20 ins NPH
# Type: cell-based
# Settings: GI50 class; Ba/F3 cell line with NPH inserted at Exon20 of EGFR; 72 hours
# Outline: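 Cells (3000–5000/well) plated 24 h before compound, 12-point 3-fold dilutions at 0.3 nM to 50 um final; Ba/F3 lines grown with 5 ng/ml IL-3. Viability by CellTiter-Glo luminescence after 72 h, growth ratio vs control, GI50 from curves; triplicate.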
row,Compound,Ba/F3 (NPH) Activity
1,"C=CC(=O)Nc1cc(Nc2cc(N3OCC[C@@H]3c3cc(F)cc(F)c3)ncn2)c(OC)cc1N1CCC(N2C[C@@H](C)N(CC)[C@@H](C)C2)CC1 [compound 827, N-(5-((6-((R)-3-(3,5-difluorophenyl)isoxazolidine-2-yl)pyrimidine-4-yl)amino)-2-(4-((3S,5R)-4-ethyl-3,5-dimethylpiperazine-1-yl)piperidine-1-yl)-4-methoxyphenyl) acrylamide]",A (GI50 < 50 nM)
2,"C=CCN1CCN(C2CCN(c3cc(OC)c(Nc4cc(N5OCC[C@@H]5c5cccc(Cl)c5C)ncn4)cc3NC(=O)C=C)CC2)CC1 [Example 213, N-(2-(4-(4-allylpiperazine-1-yl)piperidine-1-yl)-5-((6-((R)-3-(3-chloro-methylphenyl)isoxazolidine-2-yl)pyrimidine-4-yl)amino)-4-methoxyphenyl) acrylamide]",A (GI50 < 50 nM)
3,"C=CC(=O)Nc1cc(Nc2cc(N3OCC[C@@H]3c3cccc(Cl)c3F)ncn2)c(OC)cc1N1CCC(N2CCN(C3COC3)CC2)CC1 [Example 86, N-(5-((6-((R)-3-(3-chloro-2-fluorophenyl)isoxazolidine-2-yl)pyrimidine-4-yl)amino)-4-methoxy-2-(4-(4-(oxetane-3-yl)piperazine-1-yl)piperidine-1-yl)phenyl)acrylamide]",A (GI50 < 50 nM)
4,"C=CC(=O)Nc1cc(Nc2cc(N3OCC[C@@H]3c3c(F)cccc3F)ncn2)c(OC)cc1N1CCC(N2CCN(C3CC3)[C@@H](C)C2)CC1 [Example 136, N-(2-(4-((S)-4-cyclopropyl-3-methylpiperazine-1-yl)piperidine-1-yl)-5-((6-((R)-3-(2,6-difluorophenyl)isoxazolidine-2-yl)pyrimidine-4-yl)amino)-4-methoxyphenyl) acrylamide]",B (50 nM ≤ GI50 < 500 nM)
5,"C=CC(=O)Nc1cc(Nc2cc(N3OCC[C@@H]3c3ccc(Cl)c(F)c3)ncn2)c(OC)cc1N1CCC(N2C[C@@H]3C[C@H]2CN3CC)CC1 [compound 858, N-(5-((6-((R)-3-(4-chloro-3-fluorophenyl)isoxazolidine-2-yl)pyrimidine-4-yl)amino)-2-(4-((1S,4S)-5-ethyl-2,5-diazabicyclo [2.2.1]heptane-2-yl)piperidine-1-yl)-4-methoxyphenyl) acrylamide]",A (GI50 < 50 nM)
6,"C#Cc1cccc([C@H]2CCON2c2cc(Nc3cc(NC(=O)C=C)c(N4CCC(N5C[C@@H]6C[C@H]5CO6)CC4)cc3OC)ncn2)c1 [compound 618, N-(2-(4-((1S,4S)-2-oxa-5-azabicyclo[2.2.1]heptane-5-yl)piperidine-1-yl)-5-((6-((R)-3-(3-ethynylphenyl)isoxazolidine-2-yl)pyrimidine-4-yl)amino)-4-methoxyphenyl) acrylamide]",A (GI50 < 50 nM)
7,"C=CC(=O)Nc1cc(Nc2cc(N3OCC[C@@H]3c3ccc(F)c(Cl)c3F)ncn2)c(OC)cc1N1CCN(CC)CC1 [compound 600, N-(5-((6-((R)-3-(3-chloro-2,4-difluorophenyl)isoxazolidine-2-yl)pyrimidine-4-yl)amino)-2-(4-ethylpiperazine1-yl)-4-methoxyphenyl) acrylamide]",A (GI50 < 50 nM)
8,"C=CC(=O)Nc1cc(Nc2cc(N3OCC[C@@H]3c3cccc(F)c3Cl)ncn2)c(OC)cc1N1CCC(N2C[C@@H]3CCN(C)[C@@H]3C2)CC1 [compound 448, N-(5-((6-((R)-3-(2-chloro-3-fluorophenyl)isoxazolidine-2-yl)pyrimidine-4-yl)amino)-4-methoxy-2-(4-((3aS,6aS)-1-methylhexahydropyrrolo [3,4-b]pyrrole-5(1H)-yl)piperidine-1-yl)phenyl)acrylamide]",A (GI50 < 50 nM)
9,"C=CC(=O)Nc1cc(Nc2cc(N3OCC[C@@H]3c3ccc(F)cc3F)ncn2)c(OC)cc1N1CCC(N2CCOCC2)CC1 [compound 378, N-(5-((6-((R)-3-(2,4-difluorophenyl)isoxazolidine-2-yl)pyrimidine-4-yl)amino)-4-methoxy-2-(4-morpholinopiperidine-1-yl)phenyl)acrylamide]",A (GI50 < 50 nM)
10,"C=CC(=O)Nc1cc(Nc2cc(N3OCC[C@@H]3c3cccc(Cl)c3Cl)ncn2)c(OC)cc1N1CCN(CC2CC2)CC1 [compound 567, N-(2-(4-(cyclopropylmethyl)piperazine-1-yl)-5-((6-((R)-3-(2,3-dichlorophenyl)isoxazolidine-2-yl)pyrimidine-4-yl)amino)-4-methoxyphenyl) acrylamide]",A (GI50 < 50 nM)
11,"C=CC(=O)Nc1cc(Nc2cc(N3OCC[C@@H]3c3ccc(F)c(Cl)c3F)ncn2)c(OC)cc1N1CCC(N2CCN(CC)CC2)CC1 [compound 639, N-(5-((6-((R)-3-(3-chloro-2,4-difluorophenyl)isoxazolidine-2-yl)pyrimidine-4-yl)amino)-2-(4-(4-ethylpiperazine-1-yl)piperidine-1-yl)-4-methoxyphenyl) acrylamide]",A (GI50 < 50 nM)
12,"C=CC(=O)Nc1cc(Nc2cc(N3OCC[C@@H]3c3cccc(C(F)(F)F)c3)ncn2)c(OC)cc1N1CCC(N2C[C@H]3C[C@@H]2CO3)CC1 [compound 943, N-(2-(4-((1R,4R)-2-oxa-5-azabicyclo [2.2.1]heptane-5-yl)piperidine-1-yl)-4-methoxy-5-((6-((R)-3-(3-(trifluoromethyl)phenyl)isoxazolidine-2-yl)pyrimidine-4-yl)amino)phenyl) acrylamide]",A (GI50 < 50 nM)
13,"C=CC(=O)Nc1cc(Nc2cc(N3OCC[C@H]3c3c(F)cccc3F)ncn2)c(OC)cc1N1CCC(N2CCN(CC)CC2)CC1 [compound 312, N-(5-((6-((S)-3-(2,6-difluorophenyl)isoxazolidine-2-yl)pyrimidine-4-yl)amino)-2-(4-(4-ethylpiperazine-1-yl)piperidine-1-yl)-4-methoxyphenyl) acrylamide]",C (500 nM ≤ GI50 < 5000 nM)

# Results, then the molecule that gave them:
row,Ba/F3 (NPH) Activity,Compound
1,A (GI50 < 50 nM),"C=CC(=O)Nc1cc(Nc2cc(N3OCC[C@@H]3c3cccc(F)c3F)ncn2)c(OC)cc1N1CCO[C@H](C)C1 [compound 889, N-(5-((6-((R)-3-(2,3-difluorophenyl)isoxazolidine-2-yl)pyrimidine-4-yl)amino)-4-methoxy-2-((R)-2-methylmorpholino)phenyl)acrylamide]"
2,B (50 nM ≤ GI50 < 500 nM),"C=CC(=O)Nc1cc(Nc2cc(N3OCC[C@@H]3c3c(F)ccc(F)c3F)ncn2)c(OC)cc1N1CCN(C)CC1 [compound 629, N-(4-methoxy-2-(4-methylpiperazine-1-yl)-5-((6-((R)-3-(2,3,6-trifluorophenyl)isoxazolidine-2-yl)pyrimidine-4-yl)amino)phenyl)acrylamide]"
3,A (GI50 < 50 nM),"C=CC(=O)Nc1cc(Nc2cc(N3OCC[C@@H]3Cc3cccc(F)c3)ncn2)c(OC)cc1N(C)CCN(C)C [compound 992, N-(2-((2-(dimethylamino)ethyl) (methyl)amino)-5-((6-((S)-3-(3-fluorobenzyl)isoxazolidine-2-yl)pyrimidine-4-yl)amino)-4-methoxyphenyl) acrylamide]"
4,A (GI50 < 50 nM),"C=CC(=O)Nc1cc(Nc2cc(N3OCC[C@@H]3c3cccc(F)c3F)ncn2)c(OC)cc1N1CCN(C)C[C@@H]1C [compound 886, N-(5-((6-((R)-3-(2,3-difluorophenyl)isoxazolidine-2-yl)pyrimidine-4-yl)amino)-2-((S)-2,4-dimethylpiperazine-1-yl)-4-methoxyphenyl) acrylamide]"
5,A (GI50 < 50 nM),"C=CC(=O)Nc1cc(Nc2cc(N3OCC[C@@H]3c3cccc(Cl)c3C)ncn2)c(OC)cc1N(C)CCN(C)C [compound 583, N-(5-((6-((R)-3-(3-chloro-2-methylphenyl)isoxazolidine-2-yl)pyrimidine-4-yl)amino)-2-((2-(dimethylamino)ethyl)(methyl)amino)-4-methoxyphenyl) acrylamide]"
6,A (GI50 < 50 nM),"C=CC(=O)Nc1cc(Nc2cc(N3OCC[C@@H]3c3ccc(F)cc3)ncn2)c(OC)cc1N(C)CCN(C)C [Example 39, N-(2-((2-(dimethylamino)ethyl)(methyl)amino)-5-((6-((R)-3-(4-fluorophenyl)isoxazolidine-2-yl)pyrimidine-4-yl)amino)-4-methoxyphenyl) acrylamide]"
7,A (GI50 < 50 nM),"C=CC(=O)Nc1cc(Nc2cc(N3OCC[C@@H]3c3cccc(OC)c3)ncn2)c(OC)cc1N(C)CCN(C)C [Example 24, N-(2-((2-(dimethylamino)ethyl) (methyl)amino)-4-methoxy-5-((6-((R)-3-(3-methoxyphenyl)isoxazolidine-2-yl)pyrimidine-4-yl)amino)phenyl) acrylamide]"
8,A (GI50 < 50 nM),"C=CC(=O)Nc1cc(Nc2cc(N3OCC[C@@H]3c3cccc4ccccc34)ncn2)c(OC)cc1N1CC[C@@H](N(C)C)C1 [compound 443, N-(2-((R)-3-(dimethylamino)pyrolidine-1-yl)-4-methoxy-5-((6-((R)-3-(naphthalene-1-yl)isoxazolidine-2-yl)pyrimidine-4-yl)amino)phenyl) acrylamide]"
9,C (500 nM ≤ GI50 < 5000 nM),"C=CC(=O)Nc1cc(Nc2cc(N3OCC[C@@H]3c3ccc4ccccc4c3)ncn2)c(OC)cc1N1C[C@@H](C)O[C@@H](C)C1 [compound 664, N-(2-((2S,6R)-2,6-dimethylmorpholino)-4-methoxy-5-((6-((R)-3-(naphthalene-2-yl)isoxazolidine-2-yl)pyrimidine-4-yl)amino)phenyl)acrylamide]"
